According to EP1144368B1, “ACETYLENIC ALPHA-AMINO ACID-BASED SULFONAMIDE HYDROXAMIC ACID TACE INHIBITORS” (priority 1999, dated 2000):
Structures can show the parent of a compound that is named as a salt. Where two headings read alike, the source gives them in different places.

Test system: THP-1 cells
Assay: THP-1 Soluble Protein Assay (LPS-stimulated; ELISA of TNF-a, TNF-R p75/80, TNF-R p55/60, IL-8)
Assay type: cell-based, human
Details: Homo sapiens
[1] = THP-1, 3 µM, read-out: THP % Inhibition @ 3µM
[2] = THP-1, read-out: THP % inhibition @ 3 µM, 3 µM

| Structure (SMILES) | inhibition at 3 µM [2] [%] | also measured |
| --- | --- | --- |
| CC#CCOc1ccc(S(=O)(=O)N2C[C@H](CC(=O)N3CCOCC3)SC(C)(C)[C@@H]2C(=O)NO)cc1 [Example 282, (3S,6S)-4-{[4-(2-Butynyloxy)phenyl]sulfonyl}-N-hydroxy-2,2-dimethyl-6-[2-(4-morpholinyl)-2-oxoethyl]-3-thiomorpholinecarboxamide] |  | inhibition at 3 µM [1]: 91% |
| CC#CCOc1ccc(S(=O)(=O)N2C[C@H](CC(=O)NCCN(C)C)SC(C)(C)[C@@H]2C(=O)NO)cc1 [Example 284, (3S,6S)-4-{[4-(2-Butynyloxy)phenyl]sulfonyl}-6-(2-{[2-(dimethylamino)ethyl]amino}-2-oxoethyl)-N-hydroxy-2,2-dimethyl-3-thiomorpholinecarboxamide] |  | inhibition at 3 µM [1]: 88% |
| CC#CCOc1ccc(S(=O)(=O)N(Cc2ccc(OCCN3CCCCC3)cc2)C(C(=O)NO)C2CCCCC2)cc1 (centres unmarked) [Example 117, 2-{(4-But-2-ynyloxy-benzenesulfonyl)-[4-(2-piperidin-1-yl-ethoxy)-benzyl]-amino}-2-cyclohexyl-N-hydroxy-acetamide] | 88 |  |
| CC#CCOc1ccc(S(=O)(=O)N2CCSC3(CCN(C)CC3)C2C(=O)NO)cc1 (centres unmarked) [Example 242, 9-methyl-4-{[4-(2-butynyloxy)phenyl]sulfonyl}-N-hydroxy-1-thia-4,9-diazaspiro[5.5]undecane-5-carboxamide] | 73 |  |
| CC1(C)SCCN(S(=O)(=O)c2ccc(OCC#CCF)cc2)[C@H]1C(=O)NO [Example 264, (3S)-4-({4-[(4-Fluoro-2-butynyl)oxy]phenyl}sulfonyl)-N-hydroxy-2,2-dimethyl-3-thiomorpholine carboxamide] | 94 |  |
| CC#CCOc1ccc(S(=O)(=O)N(C)C(C(=O)NO)C(C)(C)SCCN2CCOCC2)cc1 (centres unmarked) [Example 140, 2-({[4-(2-Butynyloxy)phenyl]sulfonyl)(methyl)amino]-N-hydroxy-3 methyl-3-[(2(4-morpholinylethyl)sulfanyl]-butanamide hydrochloride] | 80 |  |
| CC#CCOc1ccc(S(=O)(=O)N(CC#CCN2CCN(C)CC2)C(C(=O)NO)C(C)C)cc1 (centres unmarked) [Example 125, 2-{{[4-(2-Butynyloxy)phenyl]sulfonyl}[4-(4-methyl-1-piperazinyl)-2-butynyl]amino}-N-hydroxy-3-methylbutanamide] | 72 |  |
| CC#CCOc1ccc(S(=O)(=O)N(C)C(C(=O)NO)C(C)(C)SCCN2CCN(C)CC2)cc1 (centres unmarked) [Example 141] | 86 |  |
| CC#CCOc1ccc(S(=O)(=O)N(CCCc2ccccc2)C(C(=O)NO)C(C)C)cc1 (centres unmarked) [Example 111, 2-[(4-But-2-ynyloxy-benzenesulfonyl)-(3-phenyl-propyl)-amino]-N-hydroxy-3-methyl-butyramide] | 35 |  |
| CC#CCOc1ccc(S(=O)(=O)N2CCNCCC2C(=O)NO)cc1 (centres unmarked) [Example 292, 4-{[4-(2-Butynyloxy)phenyl]sulfonyl}-N-hydroxy-1,4-diazepane-5-carboxamide] |  | inhibition at 3 µM [1]: 83% |
| CC#CCOc1ccc(S(=O)(=O)N2CCN(C(=O)Nc3cc(Cl)cc(Cl)c3)CC2C(=O)NO)cc1 (centres unmarked) [Example 223, 4-{[4-(2-Butynyloxy)phenyl]sulfonyl}-N-1-(3,5-dichlorophenyl)-N-3-hydroxy-1,3-piperazinedicarboxamide] | 42 |  |
| CC1(C)SCCN(S(=O)(=O)c2ccc(OCC#CC#CCO)cc2)[C@H]1C(=O)NO [Example 262, (3S)-N-Hydroxy-4-({4-[(6-hydroxy-2,4-hexadiynyl)oxy]phenyl}sulfonyl)-2,2-dimethyl-3-thiomorpholine carboxamide] | 81 |  |
| CC1(C)SCCN(S(=O)(=O)c2ccc(OCC#CCCCN)cc2)[C@H]1C(=O)NO [Example 251, (3S)-4-({4-[(6-Amino-2-hexynyl)oxy]phenyl}sulfonyl)-N-hydroxy-2,2-dimethyl-3-thiomorpholine carboxamide] | 22 |  |
| CC#CCOc1ccc(S(=O)(=O)N(C)C(C(=O)NO)c2ccc(OCCCNC(=O)Nc3ccccc3)cc2)cc1 (centres unmarked) [Example 198, 2-(4-{3-[(Anilinocarbonyl)amino]propoxy}phenyl)-2-[{[4-(2-butynyloxy)phenyl]sulfonyl}(methyl)amino]-N-hydroxyacetamide] | 92 |  |
| CC#CCOc1ccc(S(=O)(=O)N2CCN(C(=O)C3(C)COC(C)(C)OC3)CC2C(=O)NO)cc1 (centres unmarked) [Example 231, 1-{[4-(2-Butynyloxy)phenyl]sulfonyl}-N-hydroxy-4-[(2,2,5-trimethyl-1,3-dioxan-5-yl)carbonyl)-2-piperazinecarboxamide] | 73 |  |
| CC#CCOc1ccc(S(=O)(=O)N2CCN(C(=O)OCc3ccccc3)CC2C(=O)NO)cc1 (centres unmarked) [Example 219, Benzyl 4-{[4-(2-butynyloxy)phenyl]sulfonyl}-3-[(hydroxyamino)carbonyl]-1-piperazinecarboxylate] | 87 |  |
| CC#CCOc1ccc(S(=O)(=O)N2CCN(C(=O)N3CCOCC3)CC2C(=O)NO)cc1 (centres unmarked) [Example 215, 1-(4-But-2-ynyloxy-benzenesulfonyl)-4-(morpholine-4-carbonyl)-piperazine-2-carboxylic acid hydroxyamide] | 51 |  |
| CC#CCOc1ccc(S(=O)(=O)N(C)C(C(=O)NO)c2ccc(OCCN3CCNCC3)cc2)cc1 (centres unmarked) [Example 186, 2-[{[4-(2-butynyloxy)phenyl]sulfonyl}(methyl)amino]-N-hydroxy-2-{4-[2-(1-piperazinyl)ethoxy]phenyl}acetamide] | 93 |  |

| Structure (SMILES) | inhibition at 3 µM [2] [%] | also measured |
| --- | --- | --- |
| CC#CCOc1ccc(S(=O)(=O)N(C)C(C(=O)NO)c2ccc(OCCCNC(=O)OCC)cc2)cc1 (centres unmarked) [Example 193, Ethyl 3-{4-[1-[{[4-(2-butynyloxy)phenyl]sulfonyl}(methyl)amino]-2-(hydroxyamino)-2-oxoethyl]phenoxy}propylcarbamate] | 91 |  |
| CC#CCOc1ccc(S(=O)(=O)NC(C(=O)NO)c2ccc(OCCN3CCCC3)cc2)cc1 (centres unmarked) [Example 205, 2-({[4-(2-Butynyloxy)phenyl]sulfonyl}amino)-N-hydroxy-2-{4-[2-(1-pyrrolidinyl)ethoxy]phenyl}acetamide] | 66 |  |
| CC#CCOc1ccc(S(=O)(=O)N(C)[C@@H](C(=O)NO)[C@H]2CC[C@H](O)CC2)cc1 [Example 130] | 92 |  |
| CC#CCOc1ccc(S(=O)(=O)N(C)C(C(=O)NO)c2ccc(OCCN(C)C(=O)OC(C)(C)C)cc2)cc1 (centres unmarked) [Example 191] | 90 |  |
| CC#CCOc1ccc(S(=O)(=O)N(C)C(C(=O)NO)c2ccc(OCCN3CCOCC3)cc2)cc1 (centres unmarked) [Example 179, 2-[{[4-(2-Butynyloxy)phenyl]sulfonyl}(methyl)amino]-N-hydroxy-2-{4-[2-(4-morpholinyl)ethoxy]phenyl}acetamide] | 97 |  |
| CC#CCOc1ccc(S(=O)(=O)N(C)C(C(=O)NO)c2ccc(OCCCNC(=O)OC(C)(C)C)cc2)cc1 (centres unmarked) [Example 187, tert-Butyl 3-{4-[1-[{[4-(2-butynyloxy)phenyl]sulfonyl}(methyl)amino]-2-(hydroxyamino)-2-oxoethyl]phenoxy}propylcarbamate] | 91 |  |
| CC#CCOc1ccc(S(=O)(=O)N(C)C(C(=O)NO)C(C)(C)SCCn2ccnc2)cc1 (centres unmarked) [Example 144, 2-({[4-(2-Butynyloxy)phenyl]sulfonyl)(methyl)amino]-N-hydroxy-3-methyl-3-{[2-(1H-imidazol-1-yl)ethyl]sulfanyl}butanamide] | 89 |  |
| CC#CCOc1ccc(S(=O)(=O)N2C[C@H](CC(=O)N3CCN(C)CC3)SC(C)(C)[C@@H]2C(=O)NO)cc1 [Example 283, (3S,6S)-4-{[4-(2-Butynyloxy)phenyl]sulfonyl}-N-hydroxy-2,2-dimethyl-6-[2-(4-methyl-1-piperazinyl)-2-oxoethyl]-3-thiomorpholinecarboxamide hydrochloride] |  | inhibition at 3 µM [1]: 90% |
| CC#CCOc1ccc(S(=O)(=O)N(C)C(C(=O)NO)C(C)C)cc1 (centres unmarked) [Example 9, 2-[(4-But-2-ynyloxy-benzenesulfonyl)-methyl-amino]-N-hydroxy-3-methyl-butyramide] | 94 |  |
| CC#CCOc1ccc(S(=O)(=O)N(C)C(C(=O)NO)c2ccc(OCCN)cc2)cc1 (centres unmarked) [Example 181, 2-[4-(2-Aminoethoxy)phenyl]-2-[{[4-(2-butynyloxy)phenyl]sulfonyl}(methyl)amino]-N-hydroxyacetamide] | 92 |  |
| CC1(C)SCCN(S(=O)(=O)c2ccc(OCC#CCCCO)cc2)C1C(=O)NO (centres unmarked) [Example 249, N-Hydroxy-4-({4-[(6-hydroxy-2-hexynyl)oxy]phenyl}sulfonyl)-2,2-dimethyl-3-thiomorpholine carboxamide] | 51 |  |
| CC1(C)SCCN(S(=O)(=O)c2ccc(OCC#Cc3ccccc3)cc2)[C@H]1C(=O)NO [Example 254, (3S)-N-Hydroxy-2,2-dimethyl-4-({4-[(3-phenyl-2-propynyl)oxy]phenyl}sulfonyl)-3-thiomorpholine carboxamide] | 77 |  |
| CC#CCOc1ccc(S(=O)(=O)N(Cc2cccnc2)[C@@H](C(=O)NO)C2CCCCC2)cc1 [Example 116, 2-[(4-But-2-ynyloay-benzenesulfonyl)-pyridin-3-ylmethyl-amino]-2-cyclohexyl-N-hydroxy-acetamide] | 75 |  |
| CC1(C)SCCN(S(=O)(=O)c2ccc(OCC#CCO)cc2)C1C(=O)NO (centres unmarked) [Example 61, 4-[4-(4-Hydroxy-but-2-ynyloxy)-benzenesulfonyl]-2,2-dimethyl-thiomorpholine-3-carboxylic acid hydroxyamide] |  | inhibition at 3 µM (THP-1, read-out: THP % inhibition @ 3 µM): 89% |
| CC(=O)OCC#CCOc1ccc(S(=O)(=O)N2CCSC(C)(C)[C@@H]2C(=O)NO)cc1 [Example 261, 4-[4-({(3S)-3-[(Hydroxyamino)carbonyl]-2,2-dimethylthiomorpholinyl}suffonyl)phenoxy]-2-butynyl acetate] | 92 |  |
| CC#CCOc1ccc(S(=O)(=O)N(CCCN2CCOCC2)C(C(=O)NO)C(C)C)cc1 (centres unmarked) [Example 119, 2-{{[4-(2-Butynyloxy)phenyl]sulfonyl}[3-(4-morpholinyl)propyl]amino}-N-hydroxy-3-methylbutanamide] | 61 |  |
| CC#CCOc1ccc(S(=O)(=O)N2CCN(C(=O)Nc3ccc(OC)cc3)CC2C(=O)NO)cc1 (centres unmarked) [Example 221, 4-{[4-(2-Butynyloxy)phenyl]sulfonyl}-N-3-hydroxy-N-1-(4-methoxyphenyl)-1,3-piperazinedicarboxamide] | 58 |  |
